Laboratory results from BindingDB's records for doi:10.1016/s0960-894x(99)00444-8 (The University of Montana, 1999).

Target: Vesicular glutamate transporter 1 (Rattus norvegicus) (UniProt Q62634)
Experiment: Compound was evaluated for the binding affinity against glutamate vesicular transport (GVT)

Chain of Vesicular glutamate transporter 1 (Rattus norvegicus) (Q62634 whole entry, looked up): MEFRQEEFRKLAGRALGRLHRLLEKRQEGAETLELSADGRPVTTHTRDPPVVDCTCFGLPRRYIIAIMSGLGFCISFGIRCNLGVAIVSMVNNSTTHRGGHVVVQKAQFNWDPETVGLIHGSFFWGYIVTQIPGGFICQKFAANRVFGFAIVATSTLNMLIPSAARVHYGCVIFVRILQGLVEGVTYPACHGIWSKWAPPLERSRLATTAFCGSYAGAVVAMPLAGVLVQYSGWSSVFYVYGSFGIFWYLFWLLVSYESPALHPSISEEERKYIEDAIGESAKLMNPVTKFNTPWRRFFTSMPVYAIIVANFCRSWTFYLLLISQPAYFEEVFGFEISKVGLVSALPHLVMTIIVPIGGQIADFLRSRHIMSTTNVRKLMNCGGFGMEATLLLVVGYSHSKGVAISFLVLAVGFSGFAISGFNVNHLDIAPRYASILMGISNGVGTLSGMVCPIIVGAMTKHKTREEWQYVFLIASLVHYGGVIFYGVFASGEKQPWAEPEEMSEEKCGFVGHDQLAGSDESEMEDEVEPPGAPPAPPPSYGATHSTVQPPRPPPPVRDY

Ki: 204 µM
Structure (SMILES): O=C(O)c1cc(C(=O)O)c2cc(OCc3ccccc3)ccc2n1 [6-Benzyloxy-quinoline-2,4-dicarboxylic acid]
